# Test results reported in ChEMBL document CHEMBL6087393, “Sensitive quantification of fibroblast activation protein and high-throughput screening for inhibition by FDA-approved compounds” (Eur J Med Chem, 2024).
# Key:
# clinical = conditions: human
# Prolyl endopeptidase FAP = target: T1, Prolyl endopeptidase FAP (Homo sapiens, UniProt Q12884); test: Inhibition of recombinant human FAP extracted from S2 cells using fluorogenic FAP as specific substrate measured after 10 mins incubation by 7-amino-4-methylcoumarin in assay
# T1 sequence (Q12884 whole entry): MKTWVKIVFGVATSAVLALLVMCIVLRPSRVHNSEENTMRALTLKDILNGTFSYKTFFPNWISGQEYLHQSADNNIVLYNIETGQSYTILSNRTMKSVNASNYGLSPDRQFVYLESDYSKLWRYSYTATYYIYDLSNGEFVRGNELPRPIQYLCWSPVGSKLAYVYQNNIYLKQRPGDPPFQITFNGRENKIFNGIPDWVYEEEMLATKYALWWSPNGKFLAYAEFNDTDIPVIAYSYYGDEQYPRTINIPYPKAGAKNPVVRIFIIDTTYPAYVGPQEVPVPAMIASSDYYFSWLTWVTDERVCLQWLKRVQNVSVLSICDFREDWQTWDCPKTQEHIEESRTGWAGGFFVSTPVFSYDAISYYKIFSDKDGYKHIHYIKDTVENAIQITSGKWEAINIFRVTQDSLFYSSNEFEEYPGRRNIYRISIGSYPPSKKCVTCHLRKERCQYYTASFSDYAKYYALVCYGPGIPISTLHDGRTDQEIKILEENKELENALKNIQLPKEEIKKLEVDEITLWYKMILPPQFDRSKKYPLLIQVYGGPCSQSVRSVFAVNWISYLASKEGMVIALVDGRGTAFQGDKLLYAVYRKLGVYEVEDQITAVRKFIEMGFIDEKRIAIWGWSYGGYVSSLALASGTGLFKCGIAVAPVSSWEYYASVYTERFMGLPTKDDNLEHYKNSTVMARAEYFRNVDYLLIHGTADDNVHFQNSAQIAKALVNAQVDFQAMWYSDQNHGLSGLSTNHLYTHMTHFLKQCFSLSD
Cmax (clinical) [nM],Compound,IC50 (Prolyl endopeptidase FAP) [µM]
1200,Cc1cc2ncc(C(=O)NCC(C)(C)NCC(=O)N3CCC[C@H]3C#N)cn2n1 [ANAGLIPTIN],–
–,Nc1ncnc2c1ncn2CCOCP(=O)(O)O [ADEFOVIR],> 100
–,C[C@H](Cn1cnc2c(N)ncnc21)OCP(=O)(O)O [TENOFOVIR ANHYDROUS],> 100
12,CC#CCn1c(N2CCC[C@@H](N)C2)nc2c1c(=O)n(Cc1nc(C)c3ccccc3n1)c(=O)n2C [LINAGLIPTIN],–
